Test results from patent US20230172961A1 (priority 2020, published 2023).
Entries after “also recorded” stand apart in the source; their conditions may differ. Read-outs that look alike come from different tables or passages of the source.

Key:
[1] = target: T1, SARS-CoV-2 RdRp (nsp12, nsp7 and nsp8) (Severe acute respiratory syndrome coronavirus 2, UniProt P0DTD1); assay type: biochemical
[2] = target: SARS-CoV RdRp (nsp12, nsp7 and nsp8) (Severe acute respiratory syndrome coronavirus, UniProt P0C6X7); assay type: biochemical
[3] = tested on: RdRp of SARS-CoV and/or SARS-CoV-2; assay type: biochemical
[4] = target: SARS-CoV-2 exonuclease complex (nsp14/nsp10) (Severe acute respiratory syndrome coronavirus 2, UniProt P0DTD1); experiment: Inhibition of SARS-CoV-2 exonuclease, MALDI-TOF MS; assay type: biochemical
[5] = target: T1, SARS-CoV-2 RdRp (nsp12, nsp7 and nsp8); conditions: kinetic studies of Gordon et al 2020a, b; RDV-TP with MERS-CoV and SARS-CoV-2 RdRps; cited from earlier work
[6] = target: Therminator II (Thermococcus sp., UniProt Q56366, A485L/D141A/E143A/Y409V); conditions: 10 µM nucleotide, DNA template and primer, MALDI-TOF MS
Therminator II, sequence (Q56366 whole entry D141A/E143A/Y409V/A485L): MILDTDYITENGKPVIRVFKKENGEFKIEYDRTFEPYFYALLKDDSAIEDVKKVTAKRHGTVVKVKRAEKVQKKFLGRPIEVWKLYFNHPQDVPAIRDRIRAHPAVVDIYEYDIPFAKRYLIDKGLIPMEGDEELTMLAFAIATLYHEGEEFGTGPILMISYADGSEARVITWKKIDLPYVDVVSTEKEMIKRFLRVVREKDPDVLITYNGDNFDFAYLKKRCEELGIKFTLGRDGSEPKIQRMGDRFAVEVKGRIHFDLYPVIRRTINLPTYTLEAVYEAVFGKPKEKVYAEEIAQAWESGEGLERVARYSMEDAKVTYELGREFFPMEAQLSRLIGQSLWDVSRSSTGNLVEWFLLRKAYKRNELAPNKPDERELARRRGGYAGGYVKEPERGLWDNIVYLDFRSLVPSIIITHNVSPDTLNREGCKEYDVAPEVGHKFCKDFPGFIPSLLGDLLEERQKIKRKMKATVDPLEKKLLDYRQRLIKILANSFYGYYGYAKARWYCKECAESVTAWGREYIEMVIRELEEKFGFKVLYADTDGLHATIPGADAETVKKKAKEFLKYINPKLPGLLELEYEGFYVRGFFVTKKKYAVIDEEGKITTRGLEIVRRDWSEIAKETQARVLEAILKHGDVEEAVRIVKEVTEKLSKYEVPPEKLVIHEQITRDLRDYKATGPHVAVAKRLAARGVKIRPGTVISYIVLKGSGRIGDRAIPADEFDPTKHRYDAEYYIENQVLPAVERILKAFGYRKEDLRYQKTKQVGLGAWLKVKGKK

[7] = tested on: Therminator IX; conditions: 10 µM nucleotide, DNA template and primer, MALDI-TOF MS
[8] = tested on: Thermo Sequenase; experiment: DNA polymerase extension reaction, MALDI-TOF MS, high fidelity polymerase; conditions: 10 µM nucleotide, DNA template and primer
[9] = 150 µM inhibitor, 30 nM nsp14/nsp10, 37° C., 15 min
[10] = 10 µM inhibitor, 30 nM nsp14/nsp10, 37° C., 15 min
[11] = 30 µM inhibitor, 30 nM nsp14/nsp10, 37° C., 15 min
[12] = 100 µM inhibitor, 30 nM nsp14/nsp10, 37° C., 15 min
[13] = 300 µM inhibitor, 30 nM nsp14/nsp10, 37° C., 15 min

CC(Cn1cnc2c(N)ncnc21)OCP(=O)(O)OP(=O)(O)OP(=O)(O)O (stereo in doubt) [TFV-DP, Tenofovir diphosphate]
termination of the polymerase reaction [1]: obligate terminator for the RdRp

O=c1ccn([C@@H]2O[C@H](COP(=O)(O)OP(=O)(O)OP(=O)(O)O)[C@@H](O)[C@H]2F)c(=O)[nH]1 [2′-F-dUTP, 2′-fluoro-2′-deoxyuridine-5′-triphosphate]
incorporation efficiency [2]: incorporated very efficiently | relative incorporation efficiency in equimolar combinations [1]: incorporated far better than 2′-O-Me-UTP and dUTP | termination of the polymerase reaction in equimolar combinations [1]: not terminators of the polymerase reaction | termination of the polymerase reaction (summary of the 11 tested) [3]: did not terminate the polymerase reaction

N[C@@H]1[C@H](O)[C@@H](COP(=O)(O)OP(=O)(O)OP(=O)(O)O)O[C@H]1n1ccc(=O)[nH]c1=O [2′-NH2-dUTP, 2′-amino-2′-deoxyuridine-5′-triphosphate]
relative incorporation efficiency in equimolar combinations [1]: more efficiently incorporated than 2′-O-Me-UTP and dUTP | termination of the polymerase reaction in equimolar combinations [1]: not terminators of the polymerase reaction | termination of the polymerase reaction (summary of the 11 tested) [3]: did not terminate the polymerase reaction

CO[C@@H]1[C@H](O)[C@@H](COP(=O)(O)OP(=O)(O)OP(=O)(O)O)O[C@H]1n1ccc(=O)[nH]c1=O [2′-OMe-UTP, 2′-O-methyluridine-5′-triphosphate]
termination of the polymerase reaction [2]: significant polymerase reaction termination | termination of the polymerase reaction [1]: significant termination after the first incorporation step | termination of the polymerase reaction (summary of the 11 tested) [3]: incomplete or delayed termination

Cc1cn([C@H]2C[C@H](F)[C@@H](COP(=O)(O)OP(=O)(O)OP(=O)(O)O)O2)c(=O)[nH]c1=O [3′-F-dTTP, 3′-fluoro-3′-deoxythymidine triphosphate]
termination of the polymerase reaction [2]: permanent terminators | incorporation efficiency [1]: efficient substrates of the RdRp | termination of the polymerase reaction [1]: no further incorporation

Cc1cn([C@H]2C[C@H](N=[N+]=[N-])[C@@H](COP(=O)(O)OP(=O)(O)OP(=O)(O)O)O2)c(=O)[nH]c1=O [3′-N3-dTTP, 3′-N3-3′-deoxythymidine triphosphate]
termination of the polymerase reaction [2]: permanent terminators | incorporation efficiency [1]: incorporation efficiency was lower than for 2′-F,Me-UTP and 3′-F-dTTP | termination of the polymerase reaction [1]: no evidence of further incorporation

CO[C@H]1[C@@H](O)[C@H](n2ccc(=O)[nH]c2=O)O[C@@H]1COP(=O)(O)OP(=O)(O)OP(=O)(O)O [3′-OMe-UTP, 3′-0-methyluridine-5′-triphosphate]
incorporation efficiency [2]: lower incorporation efficiency | termination of the polymerase reaction [2]: obligate terminator | termination of the polymerase reaction (summary of the 11 tested) [3]: complete termination of the polymerase reaction

Nc1nc(=O)n([C@@H]2CS[C@H](COP(=O)(O)OP(=O)(O)OP(=O)(O)O)O2)cc1F [Ec-TP, Emtricitabine triphosphate]
incorporation efficiency [1]: relatively poor incorporation

COc1cc2c(cc1Cc1cccc(Cl)c1F)c(=O)c(C(=O)O)cn2[C@H](CO)C(C)C [Elvitegravir]
inhibition of exonuclease activity ([4]; concentration not stated for this compound (FIG. 59d)): able to inhibit the exonuclease

Nc1nc(O)c2ncn(COC(CO)COP(=O)(O)OP(=O)(O)OP(=O)(O)O)c2n1 (centres unmarked) [Gan-TP, Ganciclovir 5′-triphosphate]
termination of the polymerase reaction [2]: terminate the polymerase reaction | termination of the polymerase reaction [1]: complete termination; also recorded: better terminators than Ent-TP | termination of the polymerase reaction (summary of the 11 tested) [3]: complete termination of the polymerase reaction

Nc1ccn([C@@H]2CS[C@H](COP(=O)(O)OP(=O)(O)OP(=O)(O)O)O2)c(=O)n1 [Lam-TP, Lamivudine triphosphate]
incorporation efficiency [1]: relatively poor incorporation

COC(=O)N[C@H](C(=O)N1CC2(CC2)C[C@H]1c1nc(-c2ccc3c(c2)C(F)(F)c2cc(-c4ccc5[nH]c([C@@H]6[C@H]7CC[C@H](C7)N6C(=O)[C@@H](NC(=O)OC)C(C)C)nc5c4)ccc2-3)c[nH]1)C(C)C [Ledipasvir]
inhibition of exonuclease activity [4, 9]: able to inhibit the exonuclease

Cc1cccc(C)c1OCC(=O)N[C@@H](Cc1ccccc1)[C@@H](O)C[C@H](Cc1ccccc1)NC(=O)[C@H](C(C)C)N1CCCNC1=O [Lopinavir]
inhibition of exonuclease activity [4, 10]: small inhibition of the exonuclease activity | inhibition of exonuclease activity [4, 11]: fragmentation peaks are further reduced | inhibition of exonuclease activity [4, 12]: fragmentation peaks are further reduced | inhibition of exonuclease activity [4, 13]: complete inhibition of exonuclease activity

COC(=O)N[C@H](C(=O)N1CCC[C@H]1C(=O)Nc1ccc([C@@H]2CC[C@@H](c3ccc(NC(=O)[C@@H]4CCCN4C(=O)[C@@H](NC(=O)OC)C(C)C)cc3)N2c2ccc(C(C)(C)C)cc2)cc1)C(C)C [Ombitasvir]
inhibition of exonuclease activity ([4]; 1 µM inhibitor, 30 nM nsp14/nsp10, 37° C., 15 min): shows inhibition of the exonuclease activity | inhibition of exonuclease activity [4, 10]: significantly increased inhibition of exonuclease activity | inhibition of exonuclease activity [4, 9]: able to inhibit the exonuclease

COC(=O)N[C@H](C(=O)N1CCC[C@H]1c1nc2cc([C@H]3CC[C@H](c4cc5nc([C@@H]6CCCN6C(=O)[C@@H](NC(=O)OC)[C@@H](C)OC)[nH]c5cc4F)N3c3cc(F)c(N4CCC(c5ccc(F)cc5)CC4)c(F)c3)c(F)cc2[nH]1)[C@@H](C)OC [Pibrentasvir]
inhibition of exonuclease activity ([4]; 0.1 µM inhibitor, 30 nM nsp14/nsp10, 37° C., 15 min): shows inhibition of the exonuclease activity | inhibition of exonuclease activity [4, 10]: significantly increased inhibition of exonuclease activity | inhibition of exonuclease activity [4, 9]: able to inhibit the exonuclease

N#C[C@@]1(c2ccc3c(N)ncnn23)O[C@H](COP(=O)(O)OP(=O)(O)OP(=O)(O)O)[C@@H](O)[C@H]1O [RDV-TP]
incorporation efficiency relative to the natural nucleotide [5]: higher incorporation efficiency than ATP

CC(C)c1nc(CN(C)C(=O)N[C@H](C(=O)N[C@@H](Cc2ccccc2)C[C@H](O)[C@H](Cc2ccccc2)NC(=O)OCc2cncs2)C(C)C)cs1 [Ritonavir]
inhibition of exonuclease activity [4, 10]: shows inhibition of the exonuclease activity | inhibition of exonuclease activity [4, 11]: fragmentation peaks are further reduced | inhibition of exonuclease activity [4, 12]: fragmentation peaks are further reduced | inhibition of exonuclease activity [4, 13]: complete inhibition of exonuclease activity

Cc1cn([C@H]2C=C[C@@H](COP(=O)(O)OP(=O)(O)OP(=O)(O)O)O2)c(=O)[nH]c1=O [Sta-TP, Stavudine 5′-triphosphate]
incorporation efficiency [1]: very efficiently incorporated | termination of the polymerase reaction [1]: complete termination of the polymerase reaction | termination of the polymerase reaction at 10-fold lower concentration [1]: resulted in termination of the polymerase reaction | termination of the polymerase reaction (summary of the 11 tested) [3]: complete termination of the polymerase reaction

O=c1ccn([C@@H]2O[C@H](COP(=O)(O)OP(=O)(O)OP(=O)(O)O)[C@@H](O)[C@H]2O)c(=O)[nH]1 [UTP]
termination of the polymerase reaction [2]: primer extension by 2 UTPs occurred

Cc1cn([C@H]2C[C@H](O)[C@@H](COP(=O)(O)OP(=O)(O)OP(=O)(O)O)O2)c(=O)[nH]c1=O [dTTP]
incorporation and block of further nucleotide incorporation [6]: incorporation continued past the first A in the template | incorporation and block of further nucleotide incorporation [7]: incorporation continued past the first A in the template | incorporation and block of further nucleotide incorporation [8]: incorporation continued past the first A in the template

O=c1ccn([C@H]2C[C@H](O)[C@@H](COP(=O)(O)OP(=O)(O)OP(=O)(O)O)O2)c(=O)[nH]1 [dUTP]
relative incorporation efficiency in equimolar combinations ([1]; 250 µM each nucleotide, equimolar combinations (FIG. 36)): lower incorporation efficiency than the natural UTP

Cidofovir diphosphate [Cid-DP]
termination of the polymerase reaction [2]: terminate the polymerase reaction | termination of the polymerase reaction [1]: delayed termination | termination of the polymerase reaction at 10-fold lower concentration [1]: resulted in termination of the polymerase reaction | termination of the polymerase reaction (summary of the 11 tested) [3]: incomplete or delayed termination

Sofosbuvir
extension of the RNA template-loop-primer ([1]; […], RDV-TP together with UTP): complete conversion

biotin-16-aminoallyl-2′-deoxyuridine-5′-triphosphate [Biotin-dUTP]
relative incorporation efficiency in equimolar combinations [1]: lower incorporation efficiency than the natural UTP | termination of the polymerase reaction [1]: terminator of the polymerase reaction | termination of the polymerase reaction (summary of the 11 tested) [3]: complete termination of the polymerase reaction

desthiobiotin-16-aminoallyl-uridine-5′-triphosphate [Desthio-UTP]
incorporation efficiency [1]: incorporated | termination of the polymerase reaction [1]: does not terminate the polymerase reaction | termination of the polymerase reaction (summary of the 11 tested) [3]: did not terminate the polymerase reaction
